In patent US20100311606A1, “PHARMACOGENOMIC CELL LINE PANEL AND USE THEREOF” (priority 2007, published 2010):

Tests used:
[1] = test system: human lymphoblastoid cell lines; assay: Gemcitabine and AraC cytotoxicity assay (MTS/PMS), Human Variation Panel; format: cell-based; settings: 197 cell lines; mean±SD; 72 hours; read-out: Average unadjusted LC50
Protocol: (§1) Specifically, once cells grew at an exponential phase, 90 μl of cell suspension were placed into a 96 well flat plate (Corning, Corning, N.Y.) at a density of 5×10^4 cells/well. […] Experiments were performed in triplicate for each concentration. Medium alone was used as a blank, and cells treated with DMSO were used as controls for every plate. At end of the incubation, 20 μl combined MTS/PMS solution were added into each well and incubated at 37° C. for an additional 1-2 hours. The amount of soluble formazan was measured with a SAFIRE™ microplate reader (Tecan A G, Switzerland). An absorbance for the control cells ranging from 0.8 to 1.3 was considered to meet the standard of cytotoxicity assays for the analysis. The final cell viability for each well was calculated using the following formula: relative survival cell number=absorbance (drug-treated cells−blank)/absorbance (control cells−[…]). […] GI50 values at each concentration for each cell lines were then calculated based on the dose response curve. […] In addition, to functionally characterize the effect of the candidate genes on the sensitivity to both drugs, drug cytotoxicity with human tumor cell lines also was analyzed using an MTS assay. […]

[2] = test system: MDA-MB-231 breast cancer cells; assay: Cytotoxicity (MTS) after siRNA knockdown of NT5C3 or FKBP5; format: cell-based, human; settings: for Change of drug sensitivity after FKBP5 siRNA: FKBP5 specific siRNA vs negative siRNA
Protocol: (§2) Specifically, once cells grew at an exponential phase, 90 μl of cell suspension were placed into a 96 well flat plate (Corning, Corning, N.Y.) at a density of 5×10^4 cells/well. […] Experiments were performed in triplicate for each concentration. Medium alone was used as a blank, and cells treated with DMSO were used as controls for every plate. At end of the incubation, 20 μl combined MTS/PMS solution were added into each well and incubated at 37° C. for an additional 1-2 hours. The amount of soluble formazan was measured with a SAFIRE™ microplate reader (Tecan A G, Switzerland). An absorbance for the control cells ranging from 0.8 to 1.3 was considered to meet the standard of cytotoxicity assays for the analysis. The final cell viability for each well was calculated using the following formula: relative survival cell number=absorbance (drug-treated cells−blank)/absorbance (control cells−[…]). During the entire process from cell culture to cytotoxicity analysis, all cell lines were grown exponentially without antibiotics and were handled by one person under the same condition to minimize the variation introduced by handling. The final dose-response curve for each cell line was plotted based on either 4 parameter logistic with top=100%, or 4 parameter logistic with bottom=0% using an R package. GI50 values at each concentration for each cell lines were then calculated based on the dose response curve. Twelve randomly selected lymphoblastoid cell lines were used to repeat the cytotoxicity studies three months later. In addition, to functionally characterize the effect of the candidate genes on the sensitivity to both drugs, drug cytotoxicity with human tumor cell lines also was analyzed using an MTS assay. The experimental procedures were similar to those for the lymphoblastoid cell lines, except that the cells were incubated overnight in 96 well plates before addition of the two drugs.
(§3) Transient transfection and RNA interference: The human breast cancer cell line, MDA-MB-231, and the human pancreatic cancer cell line, SU86, were used for siRNA studies. The LIPOFECTAMINE™ RNAiMAX reagent (Invitrogen, Carlsbad, Calif.) was used for transient transfection of siRNA according to the manufacturer's instructions. Briefly, cells were growing adhesively until they reached 30-50% confluence in a 6-well plate, and then transfected. siRNAs including NT5C3-siRNA, FKBP5-siRNA and Allstars negative control siRNA (Qiagen) at a final concentration of 50 nM, as well as 5 μL, of LIPOFECTAMINE™ RNAiMAX reagent, were preincubated with 250 μL, reduced serum medium (Invitrogen) for 5 minutes at room temperature before being mixed together. After incubation of the siRNA and LIPOFECTAMINE™ reagent mixtures for 20 minutes at room temperature, this mixture was added to cells in 2 ml culture medium supplied with 10% FBS. Cells were harvested for further assays 48 hours post-transfection.
(§4) Transient transfections were first performed with NT5C3 and FKBP5 specific siRNAs. Western blots verified that both genes were knocked down in both tumor cell lines (FIG. 21A and FIG. 22A). […] That relationship also was confirmed by knockdown experiments performed with FKBP5 specific siRNA.

[3] = test system: SU86 pancreatic cancer cells; assay: as above; format: cell-based, human; settings: for Change of drug sensitivity after FKBP5 siRNA: FKBP5 specific siRNA vs negative siRNA
Protocol: as §2, §3, §4

[4] = test system: SU86 cells; assay: Caspase-3/7 activity assay in siRNA-transfected cells; format: cell-based, human; settings: increasing drug concentrations, 72 hours, compared with negative siRNA
Protocol: (§5) Error bars represent SEM values for 3 independent experiments.
(§6) Caspase-3/7 activity assay: The caspase-3 activity of siRNA-transfected cells was detected according to the manufacture's protocol using CASPASE-GLO® 3/7 Assay kit (Promega BioSciences, San Luis Obispo, Calif.). Once a proluminescent caspase-3/7 substrate containing the tetrapeptide sequence DEVD is cleaved by caspase-3/7, it will release a substrate for luciferase (amino-luciferin). […] CASPASE-GLO® 3/7 Reagent (100 μl; an equal volume to the cell suspension) was added and incubated for 1 hour at room temperature, followed by detection of luminescence with a luminometer. Wells containing culture medium alone were used as controls.
(§7) One possibility would involve the blockade of apoptosis signaling pathways as a result of FKBP5 knock-down. FKBP5 has been reported to be involved in apoptosis through a calcineurin-dependent pathway (Giraudier et al. Blood (2002) 100:2932-2940). To test that hypothesis, caspase-3/7 activity assays were performed to determine whether alterations in FKBP5 expression might influence apoptotic signaling. […] Specific mechanisms by which FKBP5 might influence apoptosis will require future clarification.

[5] = test system: MDA-MB-231 cells; assay: as above; format: cell-based, human; settings: increasing drug concentrations, 72 hours, compared with negative siRNA
Protocol: as §5, §6, §7

[6] = test system: lymphoblastoid cell lines; assay: Intracellular active metabolites by HPLC after drug treatment; settings: after AraC treatment
Protocol: To measure the intracellular metabolite levels in drug-treated lymphoblastoid cell lines, an HPLC assay was developed to measure AraCDP, AraCTP as well as dFdCDP and dFdCTP. […] Five×10^6 cells were centrifuged and washed with ice-cold phosphate buffered saline (PBS), followed by resuspension in 135 μL, of ice-cold PBS with 15 μL, of 100 μM AraCTP or dFdCTP as internal standards. Subsequently 50 μL, of 40% ice cold TCA was added, and the mixture was vortexed for 1 minute and chilled on ice for 20 minutes, followed by centrifugation. The supernatant was neutralized by adding 400 μL, of freshly prepared trioctylamine:trichlorotrifluoroethane (1:4). After centrifugation at 4° C. for 1 minute, the aqueous phase (nucleotide extract) was removed and stored at −20° C. for HPLC analysis.
Nucleotide analogue metabolites were separated from native nucleotides on a ZirChrom SAX HPLC column in HPLC assay. […] Mobile phase A was 10 mM K2HPO4 and 40 mM NaCl, pH 6.8. Mobile phase B was 100 mM K2HPO4 and 400 mM K2HPO4, pH 6.8. Detection was performed by monitoring the absorbance with a photo-diode array between 240-290 nm to obtain a typical chromatogram. The amount of intracellular metabolites in 5×10^6 cells was quantified with a standard curve prepared by spiking the 5×10^6 untreated control cells with pure compound, immediately followed by nucleotide extraction.

[7] = in vitro; format: cell-based; settings: human
Protocol: as §1

[8] = test system: lymphoblastoid cell lines; assay: Preliminary gemcitabine cytotoxicity, MTS assay, initial 71 cell lines; format: cell-based; settings: Homo sapiens, read-out: IC50 values (the drug concentration that inhibited cell growth 50%), variation across initial 71 lymphoblastoid cell lines, 48 hours
Protocol: Gemcitabine cytotoxicity: Gemcitabine cytotoxicity after drug exposure is a major phenotype that is determined in the course of phenotype-genotype association studies for the lymphoblastoid cell lines. Increasing concentrations of gemcitabine are used to perform the cytotoxicity studies in a 96-well plate format. Approximately 5×10^5 lymphoblastoid cells are incubated overnight in each well before addition of the drug. The cells are then incubated for 48 hours with gemcitabine at 8 different concentrations, ranging from 10^−4 μM to 100 μM. Cytotoxicity is determined using the MTS assay. All studies are performed in triplicate, and both IC50 and LC50 values are calculated. To avoid confounding factors, cytotoxicity studies are performed with equal numbers of cell lines from each ethnic group in every experiment.
IC50 data have been obtained for 71 of 203 cell lines (the 71 cell lines for which Perlegen genome-wide SNP data is available). Significant variation in IC50 values was observed just for the initial 71 cell lines studied (FIG. 14). Each square in FIG. 14 represents an individual sample, and the colors represent different ethnic groups.

[9] = molecular target: T1, thymidine kinase 2 (TK2) (Homo sapiens, UniProt O00142); settings: as well as deoxycytidine; cited from earlier work
T1 sequence (O00142 34-265): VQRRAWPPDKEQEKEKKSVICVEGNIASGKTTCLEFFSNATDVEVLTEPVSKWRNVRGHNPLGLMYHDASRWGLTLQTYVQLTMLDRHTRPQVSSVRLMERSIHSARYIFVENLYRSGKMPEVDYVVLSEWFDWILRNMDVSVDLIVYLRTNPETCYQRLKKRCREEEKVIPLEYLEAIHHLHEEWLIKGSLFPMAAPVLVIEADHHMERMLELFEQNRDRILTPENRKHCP

[10] = test system: patients with pancreatic cancer; settings: patients treated with gemcitabine; cited from earlier work
[11] = average of 7 resistant cell samples
[12] = average of 7 sensitive cell samples
[13] = NT5C3 specific siRNA vs negative siRNA

## Nc1ccn([C@@H]2O[C@H](CO)[C@@H](O)[C@@H]2O)c(=O)n1 [AraC, cytosine arabinoside]
[1]
  CC50: 8400 ± 14300 nM
[2]
  Change of drug sensitivity after FKBP5 siRNA: desensitized
[3]
  Change of drug sensitivity after FKBP5 siRNA: desensitized
[4]
  caspase-3/7 activity in FKBP5 siRNA-treated cells: significantly decreased
[5]
  caspase-3/7 activity in FKBP5 siRNA-treated cells: significantly decreased
[6]; [11]
  AraCDP, Resistant, Average ± SEM: 0.65 ± 0.13
  AraCTP, Resistant, Average ± SEM: 2.62 ± 0.40
[6]; [12]
  AraCDP, Sensitive, Average ± SEM: 1.02 ± 0.18
  AraCTP, Sensitive, Average ± SEM: 4.43 ± 0.56

## Nc1ccn([C@@H]2O[C@H](CO)[C@@H](O)C2(F)F)c(=O)n1 [gemcitabine, 2′,2′-difluorodeoxycytidine]
[7]
  CC50 at 72 h: 25.3 ± 30.7 nM
[2]
  Change of drug sensitivity after FKBP5 siRNA: desensitized
[2]; [13]
  Change of drug sensitivity (dose response curve) after NT5C3 siRNA: increased sensitivity
[3]
  Change of drug sensitivity after FKBP5 siRNA: desensitized
[3]; [13]
  Change of drug sensitivity (dose response curve) after NT5C3 siRNA: increased sensitivity
[8]
  IC50: 4 to 80 nM
[4]
  caspase-3/7 activity in FKBP5 siRNA-treated cells: significantly decreased
[5]
  caspase-3/7 activity in FKBP5 siRNA-treated cells: significantly decreased
[9]
  phosphorylation by TK2 relative to deoxycytidine: 5-10%
[10]
  patients with life expectancies of over one year: approximately 20%
